Experimental data: US20070244165A1, “Method for Identifying and Producing Effectors of Calmodulin-Dependent Peptidyl-Prolyl Cis/Trans Isomers” (MAX-PLANK-GESELLSCHAFT ZUR FORDERUNG, priority 2004, published 2007)

Biological target: T1, human CaMAP FKBP38 (Homo sapiens, UniProt Q14318)
T1 construct: made in house; host or cells: E. coli Rosetta cells (pET28a)
Test: Inhibition of PPIase activity of calmodulin-activated CaMAP FKBP38 (isomer-specific proteolysis with chymotrypsin)
Format: biochemical
Details: 0.5 μM FKBP38, 0.5 μM calmodulin, 5 mM calcium chloride; substrate Suc-Ala-Phe-Pro-Phe-NHNp; read-out: IC50 value (inhibitor concentration against detected enzyme activity)
Method: The human CaMAP FKBP38 (synonyms: FKBP8_HUMAN; Swiss-Prot-No.: Q14318) was produced molecular-biologically, as described in Example 9, and stored in aliquots of 100 μl with a protein concentration of 0.83 mg/ml at −80° C. Just before measuring the activity, one of these aliquots was thawed and subsequently stored at 4° C. Furthermore, commercially available calmodulin isolated from bovine brain (Sigma; purchase order no.: P2277), which had been stored at −80° C., was thawed just before measuring the activity and stored at 4° C. Suc-Ala-Phe-Pro-Phe-pNA (Bachem; purchase order no.: L-1400) was used as CaMAP substrate. Alpha-chymotrypsin isolated from bovine pancreas (Merck KG; purchase order no.: 102307) was used as isomer specific auxiliary enzyme. The following working solutions were prepared just before measuring and stored at 4° C.: • solution A: 55 mM HEPES buffer, pH 7.8; 1 mM DTT, 0.5% glycerol • solution B: 20 mg of the peptide substrate dissolved in 1 ml DMSO • solution C: 20 mg chymotrypsin dissolved in 200 μl of solution A • solution D: FKBP38 ([…], diluted in solution A) • solution E: calmodulin (300 μM, diluted in solution A) • solution F: calcium chloride (1 M in solution A)
For the kinetic determination of CaMAP activity, a computer assisted diode-array spectrometer (Hewlett Packard) with a cuvette temperature of 4° C. is used. […]

In the case of `C=CC[C@@H]1/C=C(\C)C[C@H](C)C[C@H](OC)[C@H]2O[C@@](O)(C(=O)C(=O)N3CCCC[C@H]3C(=O)O[C@H](/C(C)=C/[C@@H]3CC[C@@H](O)[C@H](OC)C3)[C@H](C)[C@@H](O)CC1=O)[C@H](C)C[C@@H]2OC` [FK506], the IC50 is reported as about 4.3 µM.
